# Values joined by “and” are separate entries in the source; they are usually repeats but may differ in a detail not shown here. Equal values may be shown once.
# Tests used:
# [1] = Stability/release in cell culture medium DMEM (10% FBS); type: in vitro ADME; details: 37 °C; for half-life: bovine, DMEM plus 10% FBS (cell culture medium), read-out: Half-life t1/2 (converted)
# U87MG xenograft = system: U87MG xenograft; design: method as in PMID 28650650; details: nude mice, in combination with radiotherapy; cited from earlier work
# Src [2] = molecular target: Src; design: method as in PMID 28650650; details: cited from earlier work
# [3] = Stability/release in fetal bovine serum (FBS); details: for Stability (% unmodified compound): FBS, 37 °C; for half-life: bovine, fetal bovine serum (absolute FBS), pH 7.4
# Src [4] = assay: Western blot of Src activation (pSrc/Src) in bioprinted U251 cells; type: cell-based, human; details: bioprinted U251, 24 h, FBS-free DMEM; for Active form of Src, pSrc (Tyr416), vs. control: 1 or 10 µM, Western blot
# Procedure: (§1) A solution of 2% alginate and 8% gelatin (bio-ink) made up the hydrogel utilized for bioprinting. After 15 min of UV light exposure, the powders were dissolved in sterile DPBS in a magnetic stirrer set at 50 °C with laminar flow. After being made, bioink was put in sterile syringes and kept at 4 °C until it was needed. Bioink had been equilibrated at 37 °C prior to the bioprinting process. After that, 2.7 mL of bioink was added to 20 × 10^6 cells that had been resuspended in 300 µL of growth media. Lastly, a disposable cartridge containing a cell/hydrogel suspension was equilibrated in a temperature-controlled printhead for 30 min at 29 °C. The BIO-X bioprinter (Cellink, Gothenburg, Sweden) was used to print in a 12-well plate at a speed of 5 mm/s and a dispensing pressure of 50 kPa, while the temperature was adjusted to 18 °C. Before adding culture media, three-dimensional constructs were crosslinked using CaCl2 for ten minutes and BaCl2 for three minutes. After 8 days, 3D structures, after evaluating cell viability, were treated for 72 h with SI306 and SI306-PD2 at selected concentrations and in different conditions: in complete DMEM high-glucose growth medium and DMEM-high glucose growth medium without FBS (w/o). Fiji ImageJ software (version 2.16.0/1.54p, https://imagej.net/software/fiji/downloads, accessed on 20 May 2025) was used to perform measurements of 3D models’ diameters on images acquired using phase contrast microscopy. A hemocytometer was used to set a scale for normalized measures and to convert real optic distance in pixels. At least five different optical fields were acquired, and the diameter was calculated for at least 100 different cell aggregates in each experimental point.
# Cells were subjected to total protein extraction using a ready-to-use cell lysis buffer (Euroclone, Milan, Italy), supplemented by a Protease/Phosphatase Inhibitor Cocktail (Euroclone), diluted 1:100. Cell lysis was further facilitated by three cycles of sonication in an ultrasonic bath (JSP, Los Angeles, CA, USA). […]
# U251 spheroids = assay: Diameter of U251 spheroids in bioprinted scaffold; type: cell-based, human; details: 10 µM, 72 h, FBS-free DMEM
# Procedure: as §1
# CAS-1 GBM cells = system: CAS-1 GBM cells; design: method as in PMID 12564978; details: CAS-1 cells; cited from earlier work
# U87 GBM cells = system: U87 GBM cells; design: method as in PMID 12564978; details: cited from earlier work
SMILES,Stability (% unmodified compound) ([1]; time 0 h),Stability (% unmodified compound) ([1]; time 0.083 h),Stability (% unmodified compound) ([1]; time 0.25 h),Stability (% unmodified compound) ([1]; time 0.5 h),Stability (% unmodified compound) ([1]; time 1 h),Stability (% unmodified compound) ([1]; time 2 h),Stability (% unmodified compound) ([1]; time 4 h),Stability (% unmodified compound) ([1]; time 24 h),half-life [1],Stability (% unmodified compound) ([3]; time 0 h),Stability (% unmodified compound) ([3]; time 0.083 h),Stability (% unmodified compound) ([3]; time 0.25 h),Stability (% unmodified compound) ([3]; time 0.5 h),Stability (% unmodified compound) ([3]; time 2 h),Stability (% unmodified compound) ([3]; time 4 h),Stability (% unmodified compound) ([3]; time 6 h),half-life [3],"Active form of Src, pSrc (Tyr416), vs. control (Src [4])",Mean diameter of U251 spheroids vs. control (U251 spheroids),further results
"ClC(Cn1ncc2c(Nc3cccc(Br)c3)nc(SCCN3CCOCC3)nc21)c1ccccc1 (centres unmarked) [SI306, N-(3-bromophenyl)-1-(2-chloro-2-phenylethyl)-6-((2-morpholinoethyl)thio)-1H-pyrazolo[3,4-d]pyrimidin-4-amine]",100.11 ± 0.91%,101.97 ± 2.32%,103.96 ± 1.68%,99.17 ± 1.10%,98.52 ± 3.69%,98.64 ± 1.79%,93.56 ± 1.79 %,87.39% and 87.39 ± 0.41 %,> 100 h,100.24 ± 2.48%,99.67 ± 0.21%,98.42 ± 1.19%,98.49 ± 2.18%,93.95 ± 2.42 %,90.92 ± 2.68 %,90.51 ± 3.24 %,> 100 h,"evident reduction in the active form of Src, starting from 1 µM",significant difference in the mean diameter of the treated U251 spheroids with respect to the control,Stability (% unmodified compound) ([1]; time 6 h): 92.30 ± 0.84 %; U87MG xenograft growth (U87MG xenograft): strongly arrested U87MG xenograft growth; Ki (Src [2]): 130 nM; Stability (% unmodified compound) ([3]; time 1 h): 97.91 ± 1.79%; Stability (% unmodified compound) ([3]; time 24 h): 90.02% and 90.02 ± 2.28 %
"O=C(OCCOCCO)N(c1cccc(Br)c1)c1nc(SCCN2CCOCC2)nc2c1cnn2CC(Cl)c1ccccc1 (centres unmarked) [SI306-PD2, 2-(2-Hydroxyethoxy)ethyl (3-Bromophenyl)(1-(2-chloro-2-phenylethyl)-6-((2-morpholinoethyl)thio)-1H-pyrazolo[3,4-d]pyrimidin-4-yl)carbamate]",100.02 ± 0.80%,100.22 ± 0.10%,103.59 ± 2.97%,98.01 ± 3.40%,91.48% and 91.48 ± 0.86%,85.45 ± 3.20%,81.41 ± 3.94%,40.07% and 40.07 ± 1.70%,18.1 h,100.06 ± 1.13%,93.64 ± 2.06%,92.56 ± 3.74%,89.39 ± 2.87%,79.26 ± 0.34%,64.90 ± 1.21%,56.13 ± 2.72%,10.7 h,"evident reduction in the active form of Src, starting from 1 µM",significant difference in the mean diameter of the treated U251 spheroids with respect to the control,"Activity in GBM cells (CAS-1 GBM cells): active; pSrc/Src ratio normalized to control, prodrug vs. SI306 (Src [4]; 10 µM, densitometric analysis): higher ability of the prodrug to inhibit the generation of phosphorylated Src than the SI306 compound; Spheroid diameter vs. SI306-treated cells (U251 spheroids): significant reduction in spheroid diameter with respect to SI306-treated cells; Activity in GBM cells (U87 GBM cells): active"
